Experimental data published in patent US20230150960A1, “COMPOSITIONS AND METHODS OF USING CYANINE DYES TO TARGET CANCER AND MITOCHONDRIA” (Thomas Jefferson University, priority 2020, published 2023).

What was measured:
Assay type in all cases: physicochemical
[1] = Solubility of BSA-containing formulations (post vortexing, 30 min and overnight at 18° C.); conditions: compound 2 mg/mL; for solubility at 30 min / solubility: BSA-containing formulation, 18 °C, aqueous with cosolvent or surfactant or cyclodextrin; for solubility at 30 min: after 30 minutes incubation at 18° C.
Procedure: (§1) Vortexing was conducted using a Denville Vortexer 59 (Denville Scientific Inc.), at maximum speed for 30 seconds. As used herein, the term overnight refers to a period lasting at least about 12-24 hours.

[2] = Solubility of glycerol-containing formulations (post vortexing, 30 min and overnight at 18° C.); conditions: compound 2 mg/mL; for solubility at 30 min / solubility / solubility at 30 s: glycerol-containing formulation; for solubility at 30 min / solubility: 18 °C; for solubility at 30 min: after 30 minutes incubation at 18° C.; for solubility at 30 s: post vortexing
Procedure: as §1, with “Tables 3A, 3B, and 3C describe solubility experiments conducted with the indicated compounds under the listed conditions. Vortexing” for “Vortexing”

[3] = Solubility of sodium deoxycholate-containing formulations (post vortexing, 30 min and overnight at 18° C.); conditions: compound 2 mg/mL; for solubility at 30 s: post vortexing
Procedure: as §1, with “Tables 5A, 5B, and 5C describe solubility experiments conducted with the indicated compounds under the listed conditions. Vortexing” for “Vortexing”

- solubility at 30 min ([1]; BSA 5 mg/mL, read-out: Solubility of BSA-containing formulations after 30 min incubation at 18° C., 5 mg/mL): < 2000 µg/mL
- solubility at 30 min ([1]; BSA 10 mg/mL, read-out: Solubility of BSA-containing formulations after 30 min incubation at 18° C., 10 mg/mL): < 2000 µg/mL
- solubility at 30 min ([1]; BSA 15 mg/mL, read-out: Solubility of BSA-containing formulations after 30 min incubation at 18° C., 15 mg/mL): < 2000 µg/mL
- solubility at 30 min ([1]; BSA 25 mg/mL, read-out: Solubility of BSA-containing formulations after 30 min incubation at 18° C., 25 mg/mL): > 2000 µg/mL
- solubility at 30 min ([1]; BSA 80 mg/mL, read-out: Solubility of BSA-containing formulations after 30 min incubation at 18° C., 80 mg/mL): > 2000 µg/mL
- solubility ([1]; BSA 80 mg/mL, overnight incubation at 18° C., read-out: Solubility of BSA-containing formulations after overnight incubation at 18° C., 80 mg/mL): > 2000 µg/mL
- solubility at 30 min ([1]; BSA 100 mg/mL, read-out: Solubility of BSA-containing formulations after 30 min incubation at 18° C., 100 mg/mL): > 2000 µg/mL
- solubility ([1]; BSA 100 mg/mL, overnight incubation at 18° C., read-out: Solubility of BSA-containing formulations after overnight incubation at 18° C., 100 mg/mL): > 2000 µg/mL
- Solubility of BSA-containing formulations after overnight incubation at 18° C., 5 mg/mL ([1]; BSA 5 mg/mL, overnight incubation at 18° C.): MFG
- Solubility of BSA-containing formulations after overnight incubation at 18° C., 10 mg/mL ([1]; BSA 10 mg/mL, overnight incubation at 18° C.): MFG
- Solubility of BSA-containing formulations after overnight incubation at 18° C., 15 mg/mL ([1]; BSA 15 mg/mL, overnight incubation at 18° C.): MFG
- Solubility of BSA-containing formulations after overnight incubation at 18° C., 25 mg/mL ([1]; BSA 25 mg/mL, overnight incubation at 18° C.): MFG
- Solubility of glycerol-containing formulations after overnight incubation at 18° C., 50% ([2]; 50% glycerol, overnight incubation at 18° C.): MFG
- solubility at 30 min ([2]; aqueous with cosolvent or surfactant or cyclodextrin, 10% glycerol, read-out: Solubility of glycerol-containing formulations after 30 min incubation at 18° C., 10%): < 2000 µg/mL
- solubility ([2]; aqueous with cosolvent or surfactant or cyclodextrin, 10% glycerol, overnight incubation at 18° C., read-out: Solubility of glycerol-containing formulations after overnight incubation at 18° C., 10%): < 2000 µg/mL
- solubility at 30 min ([2]; aqueous with cosolvent or surfactant or cyclodextrin, 20% glycerol, read-out: Solubility of glycerol-containing formulations after 30 min incubation at 18° C., 20%): < 2000 µg/mL
- solubility ([2]; aqueous with cosolvent or surfactant or cyclodextrin, 20% glycerol, overnight incubation at 18° C., read-out: Solubility of glycerol-containing formulations after overnight incubation at 18° C., 20%): < 2000 µg/mL
- solubility at 30 min ([2]; aqueous with cosolvent or surfactant or cyclodextrin, 30% glycerol, read-out: Solubility of glycerol-containing formulations after 30 min incubation at 18° C., 30%): < 2000 µg/mL
- solubility ([2]; aqueous with cosolvent or surfactant or cyclodextrin, 30% glycerol, overnight incubation at 18° C., read-out: Solubility of glycerol-containing formulations after overnight incubation at 18° C., 30%): < 2000 µg/mL
- solubility at 30 min ([2]; aqueous with cosolvent or surfactant or cyclodextrin, 40% glycerol, read-out: Solubility of glycerol-containing formulations after 30 min incubation at 18° C., 40%): < 2000 µg/mL
- solubility ([2]; aqueous with cosolvent or surfactant or cyclodextrin, 40% glycerol, overnight incubation at 18° C., read-out: Solubility of glycerol-containing formulations after overnight incubation at 18° C., 40%): < 2000 µg/mL
- solubility at 30 min ([2]; aqueous with cosolvent or surfactant or cyclodextrin, 50% glycerol, read-out: Solubility of glycerol-containing formulations after 30 min incubation at 18° C., 50%): > 2000 µg/mL
- solubility at 30 min ([2]; 0% glycerol, read-out: Solubility of glycerol-containing formulations after 30 min incubation at 18° C., 0%): < 2000 µg/mL
- solubility ([2]; 0% glycerol, overnight incubation at 18° C., read-out: Solubility of glycerol-containing formulations after overnight incubation at 18° C., 0%): < 2000 µg/mL
- solubility at 30 s ([2]; aqueous with cosolvent or surfactant or cyclodextrin, 10% glycerol, read-out: Solubility of glycerol-containing formulations post vortexing, 10%): < 2000 µg/mL
- solubility at 30 s ([2]; aqueous with cosolvent or surfactant or cyclodextrin, 20% glycerol, read-out: Solubility of glycerol-containing formulations post vortexing, 20%): < 2000 µg/mL
- solubility at 30 s ([2]; aqueous with cosolvent or surfactant or cyclodextrin, 30% glycerol, read-out: Solubility of glycerol-containing formulations post vortexing, 30%): < 2000 µg/mL
- solubility at 30 s ([2]; aqueous with cosolvent or surfactant or cyclodextrin, 40% glycerol, read-out: Solubility of glycerol-containing formulations post vortexing, 40%): < 2000 µg/mL
- solubility at 30 s ([2]; aqueous with cosolvent or surfactant or cyclodextrin, 50% glycerol, read-out: Solubility of glycerol-containing formulations post vortexing, 50%): > 2000 µg/mL
- solubility at 30 s ([2]; 0% glycerol, read-out: Solubility of glycerol-containing formulations post vortexing, 0%): < 2000 µg/mL
- Solubility of sodium deoxycholate-containing formulations after 30 min incubation at 18° C., 50 mg/mL ([3]; sodium deoxycholate 50 mg/mL, after 30 minutes incubation at 18° C.): MFG
- Solubility of sodium deoxycholate-containing formulations after 30 min incubation at 18° C., 100 mg/mL ([3]; sodium deoxycholate 100 mg/mL, after 30 minutes incubation at 18° C.): MFG
- solubility at 30 s ([3]; sodium deoxycholate-containing formulation, aqueous with cosolvent or surfactant or cyclodextrin, sodium deoxycholate 12.5 mg/mL, read-out: Solubility of sodium deoxycholate-containing formulations post vortexing, 12.5 mg/mL): < 2000 µg/mL
- solubility at 30 s ([3]; sodium deoxycholate-containing formulation, aqueous with cosolvent or surfactant or cyclodextrin, sodium deoxycholate 25 mg/mL, read-out: Solubility of sodium deoxycholate-containing formulations post vortexing, 25 mg/mL): < 2000 µg/mL
- solubility at 30 s ([3]; sodium deoxycholate-containing formulation, aqueous with cosolvent or surfactant or cyclodextrin, sodium deoxycholate 50 mg/mL, read-out: Solubility of sodium deoxycholate-containing formulations post vortexing, 50 mg/mL): < 2000 µg/mL
- solubility at 30 s ([3]; sodium deoxycholate-containing formulation, aqueous with cosolvent or surfactant or cyclodextrin, sodium deoxycholate 100 mg/mL, read-out: Solubility of sodium deoxycholate-containing formulations post vortexing, 100 mg/mL): < 2000 µg/mL
- solubility at 30 min ([3]; sodium deoxycholate-containing formulation, aqueous with cosolvent or surfactant or cyclodextrin, sodium deoxycholate 12.5 mg/mL, after 30 minutes incubation at 18° C.): < 2000 µg/mL
- solubility ([3]; sodium deoxycholate-containing formulation, aqueous with cosolvent or surfactant or cyclodextrin, sodium deoxycholate 12.5 mg/mL, overnight incubation at 18° C., read-out: Solubility of sodium deoxycholate-containing formulations after overnight incubation at 18° C., 12.5 mg/mL): < 2000 µg/mL
Structure (SMILES): CCN1/C(=C/C=C/c2sc3ccccc3[n+]2CC)Sc2ccccc21 [JAC-B1, 3′,3′-Diethylthiacarbocyanine iodide]
